In general, melting point refers to the temperature, or range, at which the solid turns liquid.

Where two headings read alike, the source gives them in different places.

This note sets out measurements from patent US20110275643A1, “AROYLQUINOLINE COMPOUNDS” (NATIONAL HEALTH RESEARCH INSTITUTES, priority 2010, published 2011).

Series [1] has as its system five cancer cell lines (KB, H460, HT29, MKN45, KB-VIN10). As to the kind of experiment: Antiproliferative activity, mean over five cancer cell lines. The class given is cell-based, Human. Particulars: for IC50: Homo sapiens, read-out: mean IC50 value against five cancer cell lines. The method, then:
The synthesized compounds 5 to 17 were evaluated for antiproliferative activities against four carcinoma cells, oral epidermoid carcinoma KB cells, non-small-cell lung carcinoma H460 cells, colorectal carcinoma HT29 cells and stomach carcinoma MKN45 cells, as well as the MDR-positive cell lines KB-VIN10, that overexpressed P-gp 170/MDR (Table 1). The controls were compounds 1 and 3.
(§1) Human oral epidermoid carcinoma KB cells, non-small-cell lung carcinoma H460 cells, colorectal carcinoma HT29 cells and stomach carcinoma MKN45 cells were maintained in RMPI-1640 medium supplied with 5% fetal bovine serum (FBS). […] Cells in logarithmic phase were cultured at a density of 5000 cells/mL/well in a 24-well plate. KB-VIN10 cells were cultured in drug-free medium for 3 days prior to use. The cells were exposed to various concentrations of the test drugs for 72 hours. The methylene blue dye assay was used to evaluate the effect of the test compounds on cell growth (Finlay et al., 1984).

Series [2] has as its system oral epidermoid carcinoma KB cells. Briefly: In vitro cell growth inhibition, methylene blue dye assay, KB cells. It is filed as cell-based, Human. The method, then: as §1
The subject of series [3] is MAP-rich tubulin. As to the kind of experiment: Tubulin polymerization in vitro assay (turbidimetric). It is filed as biochemical, bovine. Particulars: 37° C., 30 minutes, read-out: Inhibition of tubulin polymerization IC50 ± SD. How it is done:
Turbidimetric assays (Liou et al., 2004; Kuo et al., 2004) of microtubules were performed as described by Bollag et al. 1995. In brief, microtubule-associated protein (MAP)-rich tubulin (from bovine brain, Cytoskeleton, Denver, Col.) has been dissolved in reaction buffer (100 mM PIPES (1,4-piperazinediethanesulfulfonic acid, pH 6.9), 2 mM magnesium chloride (MgCl2), 1 mM GTP (guanosine triphosphate)) in preparing of 4 mg/mL tubulin solution. Tubulin solution (240 μg MAP-rich tubulin per well) was placed in 96-well microtiter plate in the presence of test compounds or 2% (v/v) DMSO (dimethyl sulfoxide) as vehicle control. The increase in absorbance was measured at 350 nm in a PowerWave X Microplate Reader (Bio-Tek Instruments, Winooski, Vt.) at 37° C. and recorded every 30 seconds for 30 minutes.

Series [4] concerns stomach carcinoma MKN45 cells. As to the kind of experiment: In vitro cell growth inhibition, methylene blue dye assay, MKN45 cells. Particulars: read-out: IC50 on the proliferation of cells, MKN45. It is filed as cell-based, Human. The method, then:
as §1

For series [5], the system named is non-small-cell lung carcinoma H460 cells. As to the kind of experiment: In vitro cell growth inhibition, methylene blue dye assay, H460 cells. The class given is cell-based, Human. Particulars: read-out: IC50 on the proliferation of cells, H460. How it is done: as §1
Series [6] has as its system KB-VIN10 cells (overexpression of P-gp170/MDR). As to the kind of experiment: In vitro cell growth inhibition, methylene blue dye assay, MDR-positive KB-VIN10 cells. It is filed as cell-based, Human. Particulars: read-out: IC50 on the proliferation of cells, KB-VIN10. How it is done:
as §1

Series [7] relates to colchicine-binding site of tubulin. Briefly: Tubulin competition-binding scintillation proximity assay ([3H]colchicine). Particulars: for Inhibition of [3H]colchicine binding (% ± SD), 1 μM inhibitor / Inhibition of [3H]colchicine binding (% ± SD), 5 μM inhibitor: Tubulin at 1 μM, [3H]colchicine at 5 μM. The method, then: This assay was performed as described by Tahir et al., 2003. […] Then 80 μg of Streptavidin-labeled SPA (scintillation proximity assay) beads were added to each reaction mixture. Then the radioactive counts were directly measured by a scintillation counter.
(In general: Scintillation proximity formats need no separation of bound from free tracer.)

Series [8] has as its system colorectal carcinoma HT29 cells. Briefly: In vitro cell growth inhibition, methylene blue dye assay, HT29 cells. The class given is cell-based, Human. Particulars: read-out: IC50 on the proliferation of cells, HT29. How it is done: as §1
[9] abbreviates: Homo sapiens, KB, 72 h, read-out: IC50 on the proliferation of cells, KB.
[10] abbreviates: Homo sapiens, KB cells, 72 hours, mean ± SD, read-out: IC50 on the proliferation of cells, KB.
Where [11] appears, read: Homo sapiens, MKN-45, MKN45 cells, 72 hours, mean ± SD.
Where [12] appears, read: Homo sapiens, NCI-H460, H460 cells, 72 hours, mean ± SD.
[13] abbreviates: Homo sapiens, KB-VIN10 cells, 72 hours, mean ± SD.
Where [14] appears, read: Homo sapiens, HT-29, HT29 cells, 72 hours, mean ± SD.
Where [15] appears, read: mean of KB, H460, HT29, MKN45, KB-VIN10.

In the case of `COc1ccc2nc(C(=O)c3cc(OC)c(OC)c(OC)c3)ccc2c1` [Compound 12, 6-methoxy-2-(3′,4′,5′-trimethoxybenzoyl)quinoline], the melting point is 143 to 145 °C. Also, the IC50 in series [1] worked out at 67 nM. Also, the IC50 in [2] (setting [9]) is 27.2 ± 9.8 nM. Besides, in [3], the IC50 is 3500 nM. Also, in series [4] (Homo sapiens, MKN-45, 72 h), the IC50 worked out at 150 ± 31.2 nM. In series [5] (Homo sapiens, NCI-H460, 72 h), the IC50 stood at 61.5 ± 20.5 nM. The IC50 in series [6] (Homo sapiens, KB-VIN10, 72 h) stood at 21.5 ± 0.6 nM. Also, in series [7], the “Inhibition of [3H]colchicine binding (% ± SD), 1 μM inhibitor” value (“Inhibition … (% ± SD), 1 μM inhibitor” for short) turned out to be 40 ± 3% and the “Inhibition of [3H]colchicine binding (% ± SD), 5 μM inhibitor” value (“Inhibition … (% ± SD), 5 μM inhibitor” for short) was 68 ± 2%. Besides, the IC50 in series [8] (Homo sapiens, HT-29, 72 h) is 77 ± 5.7 nM.

Regarding `COc1ccc(/C=C\c2cc(OC)c(OC)c(OC)c2)cc1O` [Compound 1, combretastatin A-4, reference compound], the IC50 in series [2] (KB cells, 72 hours, mean ± SD, read-out: IC50 on the proliferation of cells, KB) was found to be 2.4 ± 0.2 nM; in series [3], […]; in series [4] (MKN45 cells, 72 hours, mean ± SD) it was 4.9 ± 0.2 nM; in series [5] (H460 cells, 72 hours, mean ± SD), 2.6 ± 0.3 nM; in series [6] (KB-VIN10 cells, 72 hours, mean ± SD), 1.9 ± 0.4 nM; in series [8] (HT29 cells, 72 hours, mean ± SD), 835 ± 54 nM. Besides, the “Inhibition … (% ± SD), 1 μM inhibitor” value in series [7] was found to be 87 ± 1%. Also, the “Inhibition … (% ± SD), 5 μM inhibitor” value in series [7] worked out at 95 ± 2%.

Consider `COc1cc(C(=O)c2ccc3c(ccc[n+]3[O-])c2)cc(OC)c1OC` [Compound 16, 6-(3′,4′,5′-trimethoxybenzoyl)quinoline N-oxide], for which the melting point was 175 to 176 °C. Besides, the “fold reduction of activity compared with compound 9” value in series [1] (versus compound 9) is listed as more than 10 fold. Moreover, in series [2] (setting [10]), the IC50 is 830 ± 172 nM. The IC50 in series [4] (setting [11]) amounted to 617 ± 85 nM. Further, the IC50 in series [5] (setting [12]) turned out to be 1100 ± 150 nM. In addition, the IC50 in series [6] (setting [13]) was 764 ± 111 nM. Moreover, the IC50 in [8] (setting [14]) was 872 ± 86.2 nM.

`COc1cc(C(=O)c2ccc3c(N)c(OC)ccc3n2)cc(OC)c1OC` [Compound 15, 5-amino-6-methoxy-2-(3′,4′,5′-trimethoxybenzoyl)quinoline] registered a melting point of 184.3 to 185.2 °C. Moreover, the IC50 in series [1] turned out to be 0.32 nM. Further, the “fold improvement in the IC50 value over compound 12” value in series [1] (versus compound 12) is more than 100 fold. Moreover, in [2] (setting [9]), the IC50 amounted to 0.3 ± 0.1 nM. Besides, the IC50 in series [2] (Homo sapiens, KB, read-out: 50% Inhibition concentration (IC50) on the proliferation of KB cells line) was 0.31 nM. For the same compound, the IC50 in series [3] worked out at 1600 nM. The IC50 in series [4] (Homo sapiens, MKN-45, 72 h) amounted to 0.3 ± 0.2 nM. In series [5] (Homo sapiens, NCI-H460, 72 h), the IC50 is 0.4 ± 0.3 nM. For the same compound, in [6] (Homo sapiens, KB-VIN10, 72 h), the IC50 stood at 0.2 ± 0.1 nM. In series [7], the “Inhibition … (% ± SD), 1 μM inhibitor” value was found to be 90 ± 0.5% and the “Inhibition … (% ± SD), 5 μM inhibitor” value amounted to 97 ± 1%. Moreover, the “binding to the colchicine-binding domain in words” value in [7] ([3H]-colchicine binding assay) was “strongly bound to the colchicine-binding domain”. For the same compound, the IC50 in [8] (Homo sapiens, HT-29, 72 h) amounted to 0.4 ± 0.2 nM.

As for `COc1cc(C(=O)c2ccc3ncccc3c2)cc(OC)c1OC` [Compound 9, 6-(3′,4′,5′-trimethoxybenzoyl)quinoline], the melting point was 132 to 134 °C. For the same compound, the IC50 in series [1] (setting [15]) was 24.4 nM. In addition, in series [2] (setting [10]), the IC50 was determined as 24 ± 6.1 nM. In [3], the IC50 is 2900 nM. For the same compound, the IC50 in [4] (setting [11]) amounted to 16.3 ± 4.5 nM. Further, the IC50 in [5] (setting [12]) is 36 ± 5.5 nM. Also, the IC50 in series [6] (setting [13]) amounted to 21.5 ± 7.7 nM. In series [7], the “Inhibition … (% ± SD), 1 μM inhibitor” value came out at 51 ± 3% and the “Inhibition … (% ± SD), 5 μM inhibitor” value turned out to be 72 ± 3%. Besides, in series [8] (setting [14]), the IC50 worked out at 24.6 ± 3 nM.

`COc1cc(C(=O)c2ccc3cccnc3c2)cc(OC)c1OC` [Compound 10, 7-(3′,4′,5′-trimethoxybenzoyl)quinoline] displayed a melting point of 149 to 151 °C. Also, the “cytotoxicity / antiproliferative activity in words” value in series [1] is “loss of cytotoxicity”. Moreover, the IC50 in series [2] (setting [10]) is more than 10000 nM. Moreover, in series [4] (setting [11]), the IC50 is more than 10000 nM. Besides, the IC50 in series [5] (setting [12]) is more than 10000 nM. Further, the IC50 in series [6] (setting [13]) is more than 10000 nM. Besides, the IC50 in [8] (setting [14]) is more than 10000 nM.

With `COc1ccc2cc(C(=O)c3cc(OC)c(OC)c(OC)c3)ccc2n1` [Compound 14, 2-methoxy-6-(3′,4′,5′-trimethoxybenzoyl)quinoline], the melting point was in the range of 182 to 183 °C. In addition, the IC50 in series [1] (setting [15]) is 220 nM. In [2] (setting [10]), the IC50 came out at 301 ± 64.4 nM. Also, the IC50 in [3] is more than 10000 nM. In addition, in series [4] (setting [11]), the IC50 was determined as 138 ± 54.4 nM. In series [5] (setting [12]), the IC50 came to 256 ± 34.6 nM. The IC50 in [6] (setting [13]) was 202 ± 26.2 nM. The IC50 in series [8] (setting [14]) turned out to be 206 ± 4.9 nM.

As for `COc1cc(C(=O)c2ccc3ccccc3n2)cc(OC)c1OC` [Compound 5, 2-(3′,4′,5′-trimethoxybenzoyl)quinoline], the melting point fell in the range of 158 to 159 °C. In addition, the IC50 in [1] (setting [15]) was determined as 173 nM. Further, the IC50 in series [2] (setting [10]) worked out at 174 ± 33.1 nM. In addition, the IC50 in [3] was more than 10000 nM. Also, the IC50 in series [4] (setting [11]) was found to be 246 ± 32.7 nM. Further, the IC50 in series [5] (setting [12]) was 180 ± 25.5 nM. Also, the IC50 in series [6] (setting [13]) came out at 117 ± 23.7 nM. Besides, in [8] (setting [14]), the IC50 came out at 148 ± 17 nM.

In turn, `COc1cc(C(=O)c2ccc3c(ccc[n+]3C)c2)cc(OC)c1OC.[I-]` [Compound 17, 6-(3′,4′,5′-trimethoxybenzoyl)-1-methylquinolinium iodide] gave a melting point of 187 to 188 °C. Moreover, the “cytotoxicity / antiproliferative activity in words” value in series [1] (five cancer cell lines) was “drastic loss of activity”. For the same compound, in series [2] (setting [10]), the IC50 is more than 10000 nM. Also, in series [4] (setting [11]), the IC50 is more than 10000 nM. Further, in [5] (setting [12]), the IC50 is more than 10000 nM. For the same compound, the IC50 in [6] (setting [13]) was more than 10000 nM. For the same compound, in [8] (setting [14]), the IC50 is more than 10000 nM.
